Assay results reported in a melting point compilation (Tetko et al.; mined from patent text by program, amines drawn as free bases though some values may be those of a salt).

Compound | melting point [°C]
CCOC(=O)c1cn(C2CC2)c2nc(N3C[C@@H](CNC(C)=O)[C@H](F)C3)c(F)cc2c1=O (relative stereo) | 211 to 213
CCCOC1(C=O)C=CCC(OC)(N2CCC(c3noc4cc(F)ccc34)CC2)C1O (stereo not drawn) | 107 to 108
CCOC(=O)CCCCCOc1c(/C=C/C(=O)CCc2ccccc2)occc1=O | 38.5 to 40
O=C(NCC#CCN1CCOCC1)N1c2ccccc2-c2noc3c2C1CCC3 (stereo not drawn) | 186
CCOC(=O)c1cc(=O)c(O)c(-c2ccccc2)o1 | 155 to 157
CC(C)NCC(O)c1cnc(N)c(Cl)c1 (stereo not drawn) | 146
CN1CCN(C)c2c(cccc2[N+](=O)[O-])C1=O | 146 to 147
Oc1ccc2nc(SCCC(F)C(F)(F)Br)oc2c1 (stereo not drawn) | 64.6 to 67.6
CN1CC[C@@H](c2c(O)cc(O)c3c(=O)cc(-c4cccc(F)c4)oc23)[C@@H]1CO | 218 to 220
CCCCN(CCCC)CCCCCOc1ccc(S(=O)(=O)c2c(CC)cn3ccccc23)cc1 | 89 to 90
CNC(=O)c1cc(C(=O)c2ccccc2)ccc1N | 140
C#Cc1[nH]c2cccc3c2c1CC1C3CC(NC(=O)N(CC)CC)CN1C (stereo not drawn) | 192
CC(O)CN1CCCC(c2cccs2)=N1 (stereo not drawn) | 74 to 77
CC(C)CCCC(C)C1CCC2C3=CC=C4CC(O)C(OCCCO)C(O)C4(C)C3CCC21C (stereo not drawn) | 114 to 116
CCCC(=O)c1cnc2cc(COC(=O)c3ccccc3)ccc2c1Cl | 66 to 68
CN(C)c1[nH]c(=S)n(C2CCc3ccccc3C2)c1N(C)C (stereo not drawn) | 182 to 184
Nc1ccccc1SC[C@H](NC(=O)OCc1ccccc1)C(=O)O | 161 to 162
ON=Cc1c[nH]c2cccc(OCc3ccccc3)c12 | 206 to 210
CN1CCCC1CNC(=O)c1ccc(S(=O)(=O)N(C)C)c2c1OCCO2 (stereo not drawn) | 165 to 166
CC(C)(C)[Si](C)(C)O[C@@H]1c2cc(Br)ccc2-c2ccc(Br)cc2[C@H]1O[Si](C)(C)C(C)(C)C (relative stereo) | 162 to 163

Compound | melting point [°C]
CC1(c2cc(-c3cccc(C=C4SC(N5CCCC5)=NC4=O)c3)ccc2O)CCCCC1 | 278 to 280
CS(=O)(=O)CCN1C(=O)CN=C(c2ccccc2)c2cc(Cl)ccc21 | 135 to 156
CCC(O)C#Cc1ncn2c1CN(C)C(=O)c1c(Cl)cccc1-2 (stereo not drawn) | 178
CC(=O)c1ccc2c(c1)C(Cl)Cc1ccc(F)cc1S2 (stereo not drawn) | 112 to 114
CCCOc1nc(N)c2ncn(C3C=CCCC3)c2n1 (stereo not drawn) | 157 to 159
NC1Cc2ccccc2N(C(=O)c2ccc(NC(=O)c3cc(Cl)cc(Cl)c3)cc2)C1 (stereo not drawn) | 207 to 210
CC(=O)NCC1CC(c2ccc(F)c(F)c2)=NO1 (stereo not drawn) | 136 to 137
Cc1cc(C)c(Cc2nc(C)nc(Cl)c2C)c(C)c1 | 82 to 84
CCCNC(=O)C1c2ccccc2-c2ccccc21 | 197 to 199
CCCCC1=C([N+](=O)[O-])C(c2cccc(Cl)c2Cl)c2c[nH]nc2N1 (stereo not drawn) | 220
Cc1nc(-c2ccccc2)nc(N2CCCC2C(=O)O)c1C (stereo not drawn) | 90 to 92
COc1ccc(C(=O)NN=C(N)N)c(F)c1 | 220
O=C(O)c1ccccc1C(=O)c1ccncc1 | 191 to 193
CCNc1nc(Cl)c(Br)c(NC2CC2)n1 | 100 to 101
CN1c2ccncc2NC(CCc2ccccc2)c2cccn21 (stereo not drawn) | 92 to 94
CC(=O)SCC(C)C(=O)NC(CCCNC(=N)N)C(=O)O (stereo not drawn) | 133
Cc1c(-c2ccncc2)oc2c1C(=O)OC(C)C2 (stereo not drawn) | 157 to 160
CC(=O)Nc1cccc(S(=O)(=O)N2[C@H](C)CN(CC(=O)Nc3ccccc3C)C[C@@H]2C)c1 | 236 to 238
CCN(CC)CCCNC(=O)N1CCCC(S(=O)(=O)c2ccccc2)C1 (stereo not drawn) | 56 to 58.5
C[Si](C)(C)c1cccc(I)c1C(=O)NC1CC1 | 162 to 164

Compound | melting point [°C]
CC(=O)OCCNc1ccc(Cl)cc1C(=O)c1ccccc1F | 48 to 55
CCOc1cc(C2COCCC2NC(=O)c2ccc(C(=O)N(C(C)C)C(C)C)cc2)ccc1OC (stereo not drawn) | 166 to 168
C=Cc1cc([C@@H](C)NC(=O)C=Cc2ccc(C(C)(C)C)cc2)cc(F)c1NS(C)(=O)=O | 127 to 129
Cc1ccc(N)c(Cl)c1C#N | 117 to 119
CCCCCCCCCC(C)NC(=O)C=Cc1cccc([N+](=O)[O-])c1 (stereo not drawn) | 81 to 83
CN(C)c1cc2nc(C(C)(C)C)sc2cc1N | 169
N#CC(N=Nc1cc(S(=O)(=O)Cl)ccc1OC(=O)c1ccccc1)=C(OC(=O)c1ccccc1)c1ccccc1 | 153 to 155
C[C@@]1(C(=O)O)Oc2ccccc2NC1=O | 168 to 171
O=C1CCC(c2cc3c(s2)CC(NS(=O)(=O)c2ccccc2)CC3)=NN1 (stereo not drawn) | 230 to 232
COCCN(C1CC(C)(C)Oc2ccc(O)cc21)S(C)(=O)=O (stereo not drawn) | 115 to 117
CC(C)c1cccc(C(C)C)c1NC(=O)CN1CCN(CCOc2nc3ccccc3[nH]2)CC1 | 205 to 206
O=Cc1csc(Oc2ccccc2)n1 | 63
Cc1nc2ccc(CCc3ccccc3)cn2c1CC#N | 139 to 141
CCCCCCCCCCCCCC(=O)N(CCCCCCCC)CCC(=O)O | 47
CCC(=O)Nc1nc(CN2CCC(OC(c3ccccc3)c3ccccc3)CC2)cs1 | 86 to 88
c1cc2cc[nH]c2cn1 | 132 to 134
O=C1c2cc(Sc3ccccc3)c(Sc3ccccc3)cc2C(=O)c2c1c(O)c1cc(Sc3ccccc3)c(Sc3ccccc3)cc1c2O | > 260
CC1(C)C(C(=O)OCC(Cl)(Cl)Cl)N2C(=O)C(NC(=O)Cc3ccccc3)C2S1=O (stereo not drawn) | 166 to 168

Continued, values first:

melting point [°C] | Compound
187 to 189 | COc1cn(-c2ccc(-n3cccn3)cc2F)nc(C(=O)N(C)OC)c1=O
191 to 192 | C#CCn1c(=O)sc2cc(F)c(-n3c(OC)nc(C(F)(F)F)cc3=O)cc21
124 to 125 | Clc1cc(CCc2ccccn2)c2oc(-c3cnc4ccccc4c3)nc2c1
128 to 130 | CCCNc1cccc(-c2ccnc3c(C(=O)c4cccs4)cnn23)c1
236 | CCCc1c(Cc2ccc(-c3ccccc3C#N)cc2)c(O)nc2ccnn12
187 to 188 | COC(=O)c1cn2c(-c3ccc4ccccc4c3)csc2n1
170 to 171 | O=C(NCc1ccc(C(F)(F)F)cc1)c1cnc(Cl)nc1N1CCCC1
146 to 149 | CCN1C(=O)C(C)(C)C(=O)N(C)c2cc(OCCCN3C(=O)Cc4ccccc43)ccc21
68 to 70 | CCc1cc(C)c2c(n1)-c1ccccc1C2=O
144 to 146 | COc1ccc(-c2nc(C(O)(C(F)(F)F)C(F)(F)F)[nH]c2-c2ccc(OC)cc2)cc1
226 to 227 | NC(=O)c1sc(-n2cnc3cnccc32)cc1OCc1ccccc1C(F)(F)F
112 to 113 | O=C(O)CCc1cn(Cc2ccc(OCc3cccnc3)cc2)nc1-c1ccccc1
262 to 263 | C=C(Nc1nc(-c2ccccc2)c(-c2nc3ccccc3c(=O)n2-c2ccccc2C)s1)c1ccco1
225 to 227 | CC(C)n1nc(-c2ncc(O)nc2-c2ccccc2)ccc1=O
88 to 93 | COc1cc(/C=C/c2cc(/C=C/c3ccc4cc[nH]c4c3)n[nH]2)cc(OCc2ccccn2)c1
213 to 214 | O=C(O)c1cccc2nc(C(F)(F)C(F)(F)C(F)(F)F)n(Cc3ccccc3Cl)c12
165 | N#CC1=C(c2ccccc2)Nc2n[nH]cc2C1c1cccc(F)c1F (stereo not drawn)
65 | COCCn1nc(C(=O)NCc2ccc(OC(C)(C)C(=O)O)c(C)c2)cc1-c1ccc(C(C)(C)C)cc1
74 to 75 | COC(=O)Cc1ccc(OCc2nc(-c3ccccc3)oc2C)cc1
286 to 288 | N#Cc1cnc2cc(-c3csc(C=O)c3)ccc2c1Nc1ccc(Cl)cc1Cl

melting point [°C] | Compound
138 to 139 | CCOC(=O)c1ncc(C)c(-c2ccccc2)c1C(=O)N(CCO)Cc1cc(C(F)(F)F)cc(C(F)(F)F)c1
144 to 146 | CCCc1ccc(Oc2ccc3c(c2)OC(C(F)(F)F)C(C(=O)O)=C3)cc1 (stereo not drawn)
92 to 93 | CCCCc1nnc(SCc2ccc(Cl)cc2)n1Cc1ccc(-c2ccccc2-c2nnn[nH]2)cc1
290 to 292 | Cn1nc(-c2ccc3cc(O)ccc3c2)c2ccc(O)cc21
115 | C#CCOC(=O)C1=C(C)NC(C)=C(C(=O)OC)C1c1ccccc1C(F)(F)F (stereo not drawn)
60 to 62 | CC(C)(C)c1cn(Cc2ccccc2)c([C@@H](Cc2c[nH]c3ccccc23)NCc2ccccc2)n1
183 to 184 | COc1ccc(Oc2c(Br)cc(C=O)cc2Br)cc1Cc1ccc(=O)[nH]n1
97 to 98 | CC(C)C(=O)NCc1ccc2ccn(C3CCN(CCc4ccc(F)cc4)CC3)c2c1
222 | CC(C)n1nc(-c2c(NCc3ccncc3)nc(N)nc2-c2ccccc2)ccc1=O
188 | CSc1cnc(NC(=O)C(Cc2ccc(F)cc2)c2ccc(S(C)(=O)=O)cc2)cn1 (stereo not drawn)
220 | COc1ccc(-c2cc(=O)cc(N3CCOCC3)o2)cc1
105 to 106 | CCOC(=O)c1ccc(-c2nc(COc3ccc(CO)cc3OC)c(C)o2)o1
105 | COc1cccc(SC(CC(=O)c2ccccc2)c2cccc([N+](=O)[O-])c2)c1 (stereo not drawn)
119 to 121 | O=C1c2ccccc2C(=O)N1CC(Cc1c[nH]c([N+](=O)[O-])n1)ON1C(=O)c2ccccc2C1=O (stereo not drawn)
> 300 | COc1ccc(-c2[nH]nc3c2C(=O)c2c(NC(=O)NNC(=O)c4ccccc4)cccc2-3)cc1
158 | CCCc1ncnc(O)c1Cc1ccc(-c2ccccc2C#N)cc1
> 295 | OCc1c[nH]c2c1ccc1c3ccccc3[nH]c12
115 | COc1cc2c(cc1CCNC(=O)Cc1ccc(OC)c(OC)c1)CCC2
81 to 83 | COc1cccc(C2=C(CO)C(=O)N(C)CC2)c1
156 to 157 | N#CCCNC(=O)c1cccc(-c2ccc3c(n2)N(Cc2ccc(Cl)cc2Cl)CC3)c1
